Each structure is given as a SMILES string.

Here are results for 34 molecules from patent US7879838B2, “Heteroaryl substituted pyrazinyl-piperazine-piperidines with CXCR3 antagonist activity” (Schering Corporation, priority 2005, dated 2011).

The target in this experiment is T1, Human CXCR3 (N-delta 4) (Homo sapiens, UniProt P49682).
T1 construct: CD8 leader (N); Flag tag; expressed in transfected cells; membranes prepared
T1 sequence (P49682 5-368 limits assumed): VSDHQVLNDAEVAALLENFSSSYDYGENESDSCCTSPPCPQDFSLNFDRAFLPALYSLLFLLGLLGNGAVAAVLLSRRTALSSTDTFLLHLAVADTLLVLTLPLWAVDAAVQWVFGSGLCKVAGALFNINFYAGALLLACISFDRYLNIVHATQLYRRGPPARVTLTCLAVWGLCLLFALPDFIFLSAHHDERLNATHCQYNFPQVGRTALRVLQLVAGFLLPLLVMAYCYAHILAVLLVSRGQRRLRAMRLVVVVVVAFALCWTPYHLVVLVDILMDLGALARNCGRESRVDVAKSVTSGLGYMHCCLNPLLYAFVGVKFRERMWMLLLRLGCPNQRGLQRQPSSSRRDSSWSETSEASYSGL
Nature of the experiment: Human CXCR3 (N-delta 4) scintillation proximity assay (SPA), [125I] IP-10 binding to Ba/F3-hCXCR3 membranes. The gist of the method:
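Membranes from Ba/F3 pro-B cells stably expressing Flag-tagged hCXCR3 (N-delta 4), 2 μg per point, prebound 1 hr to WGA SPA beads in HEPES buffer with CaCl2, MgCl2, NaCl, 1.0% BSA. Competition with 25 pM [125I] IP-10 and titrated compounds, 3 hr at room temperature; bound radioligand counted; […].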
For orientation: SPA uses beads or plates that emit light when radiolabelled molecules are held near them.

Where [1] appears, read: IC50 rating, 25 pM [125I] IP-10, membranes of Ba/F3 cells expressing human CXCR3 (N-delta 4).

As usually defined, the IC50 is the concentration that gives 50% inhibition. The low end stands for inhibition by little substance, the high end for a need for much substance. Take `CC[C@H]1CN(c2nc(N)c(C(=O)NCCO)nc2Cl)CCN1C1CCN(C(=O)c2ccc(C)nc2O)CC1` [compound 103]: under setting [1], the IC50 was above 0.1 µM. Same read-out and setting: the same measure for `CC[C@H]1CN(c2nc(N)c(C(=O)Nc3ccc(Cl)cc3)nc2Cl)CCN1C1CCN(C(=O)c2ccc(Cl)nc2N)CC1` [compound 149]: below 0.025 µM. Same read-out and setting: with `CC[C@H]1CN(c2nc(N)c(C(=O)N[C@H]3CCC[C@@H]3O)nc2Cl)CCN1C1CCN(C(=O)c2ccc(Cl)nc2N)CC1` [compound 42] the figure was below 0.025 µM; with `CC[C@H]1CN(c2ncc(C(=O)NC)nc2C(F)(F)F)CCN1C1CCN(C(=O)c2ccc(Cl)nc2N)CC1` [compound 173], below 0.025 µM.

The molecule `CC[C@H]1CN(c2nc(N)c(C(=O)NC3CCOC3=O)nc2Cl)CCN1C1CCN(C(=O)c2ccc(Cl)nc2N)CC1` (some centres unmarked) [compound 55] had a concentration for half-maximal inhibition (IC50) under setting [1] of 0.025 to 0.1 µM.

In turn, `CC[C@H]1CN(c2nc(N)c(C(=O)NCCO)nc2Cl)CCN1C1CCN(C(=O)c2ccc(OC)nc2N)CC1` [compound 133] returned a half-inhibitory concentration (IC50) under setting [1] of 0.025 to 0.1 µM.

In the case of `CC[C@H]1CN(c2nc(N)c(C(N)=O)nc2Cl)CCN1C1CCN(C(=O)c2ccc(OC)nc2N)CC1` [compound 135], the IC50 under setting [1] was 0.025 to 0.1 µM. For the molecule `CC[C@H]1CN(c2ncc(C(=O)NC3CC3)nc2C(F)(F)F)CCN1C1CCN(C(=O)c2ccc(Cl)nc2N)CC1` [compound 178], the IC50 under setting [1] is below 0.025 µM. As to `CC[C@H]1CN(c2ncc(C(=O)NC3CC3)nc2C)[C@H](C)CN1C1CCN(C(=O)c2ccc(Cl)nc2N)CC1` [compound 159], the IC50 under setting [1] is below 0.025 µM. On the same count and under the same terms, with `CC[C@H]1CN(c2nc(N)c(C(=O)NCCO)nc2Cl)CCN1C1CCN(Cc2cc3ccccc3nc2Cl)CC1` [compound 94] the figure was above 0.1 µM; with `CC[C@H]1CN(c2nc(N)c(C(=O)NC3CC3)nc2Cl)[C@H](C)CN1C1CCN(C(=O)c2ccc(Cl)nc2N)CC1` [compound 177], below 0.025 µM; with `CC[C@H]1CN(c2ncc(C(N)=O)nc2C)[C@H](C)CN1C1CCN(C(=O)c2ccc(Cl)nc2N)CC1` [compound 128], below 0.025 µM. Same read-out and setting: the same measure for `CC[C@H]1CN(c2nc(N)c(C(=O)NC3CC3)nc2Cl)CCN1C1CCN(C(=O)c2sc(C)nc2C)CC1` [compound 139]: above 0.1 µM; for `CC[C@H]1CN(c2nc(N)c(C(=O)NC)nc2Cl)CCN1C1CCN(C(=O)c2ccc(OC)nc2N)CC1` [compound 131]: 0.025 to 0.1 µM; for `CC[C@H]1CN(c2ncc(C(=O)NC(C)C)nc2C(F)(F)F)CCN1C1CCN(C(=O)c2ccc(Cl)nc2N)CC1` [compound 179]: below 0.025 µM.

`CC[C@H]1CN(c2nc(N)c(C(=O)NC3CCCC3O)nc2Cl)CCN1C1CCN(C(=O)c2ccc(Cl)nc2N)CC1` (some centres unmarked) [compound 27]: the half-inhibitory concentration (IC50) under setting [1] was below 0.025 µM.

Under setting [1], `CC[C@H]1CN(c2ncc(C(N)=O)nc2C)CCN1C1CCN(C(=O)c2ccc(C(F)(F)F)nc2N)CC1` [compound 165] came in with an IC50 of 0.025 to 0.1 µM. In turn, `CC[C@H]1CN(c2ncc(C(=O)NC3CC3)nc2Cl)CCN1C1CCN(C(=O)c2ccc(Cl)nc2N)CC1` [compound 119] came in with an IC50 under setting [1] below 0.025 µM. Still for that read-out and setting: the same measure for `CC[C@H]1CN(c2nc(N)c(C(=O)NN)nc2Cl)CCN1C1CCN(C(=O)c2c(C)noc2C)CC1` [compound 102]: above 0.1 µM. As for `CC[C@H]1CN(c2nc(N)c(C(=O)NC3CC3)nc2Cl)CCN1C1CCN(C(=O)c2cc(F)c(Cl)nc2Cl)CC1` [compound 16], under setting [1], the 50% inhibitory concentration (IC50) was below 0.025 µM. Still for that read-out and setting: the same measure for `CC[C@H]1CN(c2nc(N)c(C(=O)OC)nc2Cl)CCN1C1CCN(C(=O)c2ccc(Cl)nc2N)CC1` [Compound No. 58]: 0.025 to 0.1 µM; for `CC[C@H]1CN(c2nc(N)c(C(N)=O)nc2Cl)CCN1C1CCN(Cc2ccc(Cl)n3ccnc23)CC1` [compound 75]: above 0.1 µM; for `CC[C@H]1CN(c2nc(N)c(C(N)=O)nc2Cl)CCN1C1CCN(Cc2ccc(Cl)c3nn[nH]c23)CC1` [compound 153]: above 0.1 µM. On the same count and under the same terms, with `CC[C@H]1CN(c2nc(N)c(C(=O)NCCO)nc2C)CCN1C1CCN(C(=O)c2ccc(Cl)nc2N)CC1` [compound 171] the figure was below 0.025 µM; with `CC[C@H]1CN(c2nc(N)c(C(=O)NN)nc2Cl)CCN1C1CCN(C(=O)c2ccc(-n3cccc3)nc2)CC1` [compound 69], 0.025 to 0.1 µM; with `CC[C@H]1CN(c2nc(N)c(C(=O)NCC3CC3)nc2Cl)CCN1C1CCN(C(=O)c2ccc(Cl)nc2N)CC1` [compound 21], below 0.025 µM. Regarding `CC[C@H]1CN(c2nc(N)c(C(=O)NC[C@@H](C)O)nc2Cl)CCN1C1CCN(Cc2ccc(Cl)nc2N)CC1` [compound 2], the IC50 under setting [1] was below 0.025 µM. Same read-out and setting: with `CC[C@H]1CN(c2ncc(C(=O)OC)nc2C)[C@H](C)CN1C1CCN(C(=O)c2ccc(Cl)nc2N)CC1` [compound 164] the figure was below 0.025 µM; with `CC[C@H]1CN(c2nc(N)c(C(=O)NCCNS(C)(=O)=O)nc2Cl)CCN1C1CCN(Cc2ccc(Cl)nc2N)CC1` [compound 34], below 0.025 µM; with `CC[C@H]1CN(c2nc(N)c(C(=O)NC3COCC3O)nc2Cl)CCN1C1CCN(C(=O)c2ccc(Cl)nc2N)CC1` (some centres unmarked) [compound 61], 0.025 to 0.1 µM. Same read-out and setting: with `CC[C@H]1CN(c2nc(N)c(C(=O)NC3CC3)nc2Cl)CCN1C1CCN(Cc2cnc(-c3ccccc3)nc2C)CC1` [compound 145] the figure was above 0.1 µM; with `CC[C@H]1CN(c2nc(NCC3CC3)c(C(=O)OC)nc2Cl)CCN1C1CCN(C(=O)c2ccc(Cl)nc2N)CC1` [compound 105], above 0.1 µM. As to `CC[C@H]1CN(c2nc(N)c(C(=O)NC(=N)NC)nc2Cl)CCN1C1CCN(C(=O)c2ccc(Cl)nc2N)CC1` [Compound No. 1], the half-inhibitory concentration (IC50) was below 0.025 µM under setting [1] and 0.0007 µM (human CXCR3 (N-delta 4) SPA). Molecule `CC[C@H]1CN(c2nc(N)c(C(=O)NCCN(C)C)nc2Cl)CCN1C1CCN(C(=O)c2ccc(Cl)nc2N)CC1` [compound 64] came in with an IC50 under setting [1] of 0.025 to 0.1 µM.
